Reference: patent US5008282A, “Cyclic guanidine derivatives, anti-ulceratives and methods of manufacturing the same” (Kotobuki Seiyaku Co. Ltd., priority 1988, dated 1991)
Structures can show the parent of a compound that is named as a salt.

Columns and labels:
(H^+, K^+)ATPase = molecular target: T1, (H^+, K^+)ATPase (Sus scrofa, UniProt P19156); experiment: Inhibition of (H^+, K^+)ATPase activities; format: biochemical; conditions: pig gastric mucosa ATPase; pH 7.4; 2 mM MgCl2; 10 mM KCl; 37° C; read-out: (H^+,K^+)ATPase IC50 (Concentration of 50% inhibition)
T1 construct: ATPase is prepared from the pig gastric mucosa; from tissue; host or cells: pig gastric mucosa
T1 sequence (P19156 2-1034 limits assumed): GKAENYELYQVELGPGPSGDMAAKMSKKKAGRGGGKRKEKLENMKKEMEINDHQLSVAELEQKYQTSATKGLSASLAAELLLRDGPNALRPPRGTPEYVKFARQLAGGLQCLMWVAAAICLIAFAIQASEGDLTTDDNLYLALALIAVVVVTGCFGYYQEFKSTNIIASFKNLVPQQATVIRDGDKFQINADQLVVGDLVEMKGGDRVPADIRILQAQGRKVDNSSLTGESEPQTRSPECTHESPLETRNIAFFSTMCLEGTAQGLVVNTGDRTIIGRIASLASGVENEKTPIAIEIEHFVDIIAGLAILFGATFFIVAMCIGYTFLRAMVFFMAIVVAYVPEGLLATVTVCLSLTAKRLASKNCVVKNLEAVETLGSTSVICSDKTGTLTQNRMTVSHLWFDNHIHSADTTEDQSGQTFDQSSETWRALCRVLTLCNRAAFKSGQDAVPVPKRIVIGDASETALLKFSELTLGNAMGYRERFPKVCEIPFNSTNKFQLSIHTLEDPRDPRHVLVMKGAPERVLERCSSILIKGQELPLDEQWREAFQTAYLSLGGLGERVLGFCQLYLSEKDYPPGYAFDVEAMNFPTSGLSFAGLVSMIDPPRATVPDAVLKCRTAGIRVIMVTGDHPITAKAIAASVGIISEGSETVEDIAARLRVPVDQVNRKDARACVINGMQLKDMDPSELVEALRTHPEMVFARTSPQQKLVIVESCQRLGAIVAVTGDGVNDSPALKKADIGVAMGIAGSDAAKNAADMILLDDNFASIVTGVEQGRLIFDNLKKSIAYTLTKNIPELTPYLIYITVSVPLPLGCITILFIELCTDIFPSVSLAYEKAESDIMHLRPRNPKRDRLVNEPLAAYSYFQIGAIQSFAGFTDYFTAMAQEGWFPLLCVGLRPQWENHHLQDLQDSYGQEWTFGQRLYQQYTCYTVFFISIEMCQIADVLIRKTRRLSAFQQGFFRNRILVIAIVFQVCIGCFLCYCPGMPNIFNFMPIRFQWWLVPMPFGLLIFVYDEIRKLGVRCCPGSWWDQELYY
T1 sequence (P18434 whole entry partner): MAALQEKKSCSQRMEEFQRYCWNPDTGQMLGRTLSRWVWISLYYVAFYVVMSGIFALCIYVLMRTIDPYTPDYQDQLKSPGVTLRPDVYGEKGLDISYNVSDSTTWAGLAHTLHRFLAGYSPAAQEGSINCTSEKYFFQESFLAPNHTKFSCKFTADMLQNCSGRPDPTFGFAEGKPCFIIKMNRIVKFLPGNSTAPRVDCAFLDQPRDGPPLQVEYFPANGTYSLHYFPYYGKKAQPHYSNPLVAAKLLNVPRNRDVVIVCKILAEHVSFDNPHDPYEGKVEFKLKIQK
Procedure: Inhibition of (H^+, K^+)ATPase activities. Inhibition of (H^+, K^+)ATPase activities is determined by the method of F. Fellenius et al., [Nature 290, 159-61, (1981)]. (H^+, K^30 )ATPase is prepared from the pig gastric mucosa and the test compound is incubated with 2 mM of […], 40 mM of tris-buffer (pH 7.4), 2 mM of MgCl2 and 10 mM of KCl at 37° C. Inorganic phosphate occurring by stimulation of ATPase is determined.

[1] = system: histamine-stimulated acid secretion; experiment: Inhibitory activities of gastric-acid secretion in the acute fistula rat; format: in vivo; conditions: 50 mg/kg oral, histamine.2HCl 10 mg/kg s.c. 4 hours after compound, Male Wistar rats, read-out: Total acid inhibition (inhibitory percent of compounds on histamine-stimulated acid secretion)
Procedure: Inhibitory activities of gastric-acid secretion in the acute fistula rat.
Determination of gastric-acid secretion is performed by the method of Y. Goto et al.(Expenentia 32, 946, (1976)). Male Wistar rats are anesthetized with urethane (1.2 g/kg, i.p.) 2 hours after the oral administration of compounds. A dual polyethylene cannula is introduced into the gastric lumen after ligation of the pylorus and the esophagus. The stomach is rinsed with 5 ml of saline through the gastric cannula at 15 min interval. The acid output during 15 minutes period is titrated with 0.01N NaOH. Histamine.2HCl (10 mg/kg, s.c.) is administered as a secretory agent 4 hours after the administration of compounds.

IC50 ((H^+, K^+)ATPase)	SMILES	inhibition in vivo at 50 mg/kg [1]
2.47 µM	CC(=O)Sc1c(-c2ccccc2)nc2nc3cccccc3n12 [Compound 34, 3-(Acetyl)thio-2-phenyl-cyclohept[d]imidazo[1,2-a]imidazole]	76.6%
10.5 µM	CCC(=O)Sc1c(-c2ccccc2)nc2nc3cccccc3n12 [Compound 35, 3-(Propionyl)thio-2-phenyl-cyclohept[d]imidazo[1,2-a]imidazole]	54%
2.2 µM	C=CC(=O)Sc1c(-c2ccccc2)nc2nc3cccccc3n12 [Compound 37, 3-(Acryloyl)thio-2-phenyl-cyclohept[d]imidazo[1,2-a]imidazole]	51.5%
13.3 µM	C/C=C/C(=O)Sc1c(-c2ccccc2)nc2nc3cccccc3n12 [Compound 38, 3-(Crotonoyl)thio-2-phenyl-cyclohept[d]imidazo[1,2-a]imidazole]	63.4%
2.23 µM	COCC(=O)Sc1c(-c2ccccc2)nc2nc3cccccc3n12 [Compound 43, 3-(Methoxyacetyl)thio-2-phenyl-cyclohept[d]imidazo[1,2-a]imidazole]	53.8%
8.75 µM	COCCC(=O)Sc1c(-c2ccccc2)nc2nc3cccccc3n12 [Compound 44, 3-(3-Methoxypropionyl)thio-2-phenyl-cyclohept[d]imidazo[1,2-a]imidazole]	80.7%
2.72 µM	O=C(Sc1c(-c2ccccc2)nc2nc3cccccc3n12)c1ccccn1 [Compound 48, 3-(Picolinoyl)thio-2-phenyl-cyclohept[d]imidazo[1,2-a]imidazole]	
1.95 µM	CCCCC(=O)Sc1c(-c2ccccc2)nc2nc3ccc(C(C)C)ccc3n12 [Compound 53, 3-(valeryl)thio-2-phenyl-7-isopropyl-cyclohept[d]imidazo[1,2-a]imidazole]	73.7%
1.4 µM	CC(=O)Sc1c(-c2ccc(F)cc2)nc2nc3cccccc3n12 [Compound 55, 3-(acetyl)thio-(4-fluorophenyl)-cyclohept[d]imidazo[1,2-a]imidazole]	
0.79 µM	CC(=O)Sc1c(-c2ccc(Cl)cc2)nc2nc3cccccc3n12 [Compound 57, 3-(acetyl)thio-2-(4-chlorophenyl)-cyclohept[d]imidazo[1,2-a]imidazole]	
17.5 µM	CCC(=O)Sc1c(C)nc2nc3cccccc3n12 [Compound 66, 3-(Propionyl)thio-2-methyl-cyclohept[d]imidazo[1,2-a]imidazole]	63.7%
5.9 µM	COCC(=O)Sc1c(C)nc2nc3cccccc3n12 [Compound 72, 3-(Methoxyacetyl)thio-2-methyl-cyclohept[d]imidazo[1,2-a]imidazole]	
55.1 µM	COCCC(=O)Sc1c(C)nc2nc3cccccc3n12 [Compound 75, 3-(3-MethoxyPropionyl)thio-2-methyl-cyclohept[d]imidazo[1,2-a]imidazole]	
25.8 µM	CCC(=O)Sc1c(-c2ccccc2)nc2n(C)c3ccccc3n12 [Compound 87, 3-(Propionyl)thio-2-phenyl-9-methyl-9H-imidazo[1,2-a]benzimidazole]	53.8%
16 µM	Cn1ccn2c(SC(=O)COc3ccccc3)c(-c3ccccc3)nc12 [Compound 92, 5-(Phenoxyacetyl)thio-6-phenyl-1-methyl-1H-imidazo[1,2-a]imidazole]	65.6%

Continued, compound first:

SMILES	IC50 ((H^+, K^+)ATPase)	inhibition in vivo at 50 mg/kg [1]
C=CCSc1c2ccccn2c2nc3c(n12)CCCCC3 [Compound 16, 13-(2-Propenyl)thio-pyrido[1',2':3,4]imidazo[1,2-a]-7,8,9,10,11pentahydro-cycloheptimidazole]	16.5 µM	
C#CCSc1c2ccccn2c2nc3c(n12)CCCCC3 [Compound 18]	3.06 µM	
CC#CCSc1c2ccccn2c2nc3c(n12)CCCCC3 [Compound 19, 13-(2-Butynyl)thio-pyrido[1',2':3,4]imidazo[1,2-a]-7,8,9,10,11pentahydro-cycloheptimidazole]	47.3 µM	
CCC(=O)Sc1c2ccccn2c2nc3c(n12)CCCCC3 [Compound 21, 13-(Propionyl)thio-pyrido[1',2':3,4]imidazo[1,2-a]-7,8,9,10,11pentahydro-cycloheptimidazole fumarate]	18.1 µM	64.9%
c1ccn2c(c1)c(SCCN1CCCCC1)n1c3c(nc12)CCCCC3 [Compound 23, 13-[2-(1-Piperidino)ethyl]thio-pyrido[1',2':3,4]imidazo[1,2-a]7,8,9,10,11-pentahydro-cycloheptimidazole]	91.3 µM	
CC(=O)Sc1c(C)nc2nc3cccccc3n12 [Compound 65, 3-(Acetyl)thio-2-methyl-cyclohept[d]imidazo[1,2-a]imidazole]		68.8%
Cc1nc2nc3cccccc3n2c1SC(=O)C(C)(C)C [Compound 68, 3-(Pivaloyl)thio-2-methyl-cyclohept[d]imidazo[1,2-a]imidazole]		73.9%
C/C=C/C(=O)Sc1c(C)nc2nc3cccccc3n12 [Compound 69, 3-(Crotonoyl)thio-2-methyl-cyclohept[d]imidazo[1,2-a]imidazole]	22.7 µM	83.5%
Cc1nc2nc3cccccc3n2c1SC(=O)c1ccccn1 [Compound 76, 3-(Picolinoyl)thio-2-methyl-cyclohept[d]imidazo[1,2-a]imidazole]		83.7%
Cc1nc2nc3cccccc3n2c1SC(=O)c1ccccc1 [Compound 77, 3-(Benzoyl)thio-2-methyl-cyclohept[d]imidazo[1,2-a]imidazole]		82.5%
Cc1nc2nc3cccccc3n2c1SC(=O)C(C)C [Compound 81, 3-(isobutyryl)thio-2-methyl-cyclohept[d]imidazo[1,2-a]imidazole]	2.79 µM	79.8%
CCCCC(=O)Sc1c(C)nc2nc3cccccc3n12 [Compound 82, 3-(valeryl)thio-2-methyl-cyclohept [d]imidazo[1,2-a]imidazole]		81.2%
